The subject of series [1] is 34-37 kDa immunophilin (Jurkat cells). Briefly: Radioreceptor assay / Scatchard analysis, purified 34-37 kDa immunophilin. Format: binding. Here is the method: Receptor density (Bmax), affinity (Kd) and Hill coefficients (nH) were obtained using EBDA and Ligand computer programs. Radioreceptor assay: The radioreceptor assay was done in a final volume of 250 μl. […] To assess total binding, 25 μL of 50 % ethanol alone was added to maintain a constant level of ethanol in the reaction. 100-150 μL of 5 mM phosphate buffer, pH 6.8, containing 0.2% Tween 20, was added. 2-5 μg protein solution in 50-100 μL was added to obtain a final reaction volume of 250 μL. Following a 20 minute incubation at 25° C. on a shaker, 200 μL of the reaction mixture was added to Sephadex LH-20 columns (Pharmacia Biotech, Piscataway, N.J., U.S.A.,1.8 mL bed volume) equilibrated with LH-20 assay buffer (20 mM Tris buffer, pH 7.2, 5 mM β-mercaptoethanol and 0.05% sodium azide).
SDS-PAGE electrophoresis: The protein from the gel filtration fraction was analyzed for purity using 10% SDS-PAGE electrophoresis in the presence and absence of mercaptoethanol and visualized using DAIICHI-II silver staining. […] The data were analyzed using EBDA and Ligand computer programs.

The test system of series [2] is purified 50-54 kDa binding protein (JURKAT cells). Briefly: Binding competition curves, purified 50-54 kDa binding protein, LH-20 separation. How it is done:
Binding of [^3 H-dihydro]-FK506 to this protein was inhibited in a dose-dependent manner by rapamycin (B50 =0. 1 nM), whereas binding of [^3 H]-CSA to this protein was not affected by rapamycin at concentrations as high as 300 nM.

Series [3] in a line: Storage stability of FK-506 in frozen blood. As to conditions: frozen (-20° C.) blood. Format: physicochemical. Here is the method:
The competition-type PBA was conducted as follows. […] Following a 20-minute incubation at 25° C., 100 μL of a reaction mixture was added to a 1.8 mL bed volume Sephadex LH-20 column preequilibrated with 20 mM Tris buffer, pH 7.2-5 mM 2-mercaptoethanol-0.05% NaN3. Elution with five 250 μL portions of this buffer completely separated free from protein-bound radioligand. The protein-bound radioactivity in the 1.25 mL of eluate was measured in 10 mL Optima Gold Scintillation Cocktail (Packard Chemicals, Meriden, Conn.) in a liquid scintillation spectrometer operating at 59% counting efficiency. […] All analyses were performed in duplicate.

Series [4] concerns the target 10-12 kDa binding protein (JURKAT cells) (Homo sapiens, UniProt P62942). Conditions: Scatchard analysis, 10-12 kDa (8-12 kDa) protein.
Procedure: (§3) Association constants, specific binding activities, and numbers and types of binding sites can be obtained from Scatchard and Hill plots, using EBDA and LIGAND software.
(§4) The binding proteins purified in Example 5 were incubated with increasing amounts of labeled ligand and the binding data analyzed according to Scatchard.
Series [5] deals with 50-54 kDa binding protein (JURKAT cells). Description: Scatchard / direct binding to purified 50-54 kDa immunophilin.
Procedure: as §3
(§5) Bound and free ligand were separated using the above-described LH-20 system.
as §4
Series [6] deals with JURKAT cell cytosol protein fractions. Description: Binding and competition in JURKAT cytosol protein fractions. Set-up: competition for CsA binding to 16-18 kDa and 50-54 kDa fractions / inhibition of [3H-dihydro]-FK-506 binding in all fractions: unit of the concentration uncertain. Here is the method:
This fraction (3.02 mg in 2.7 mL) was then passed through a BioSil-125 HPLC column at a flow rate of 1.0 mL/minute of 10 mM phosphate buffer, pH 6.8. Those fractions around the expected molecular weight (around 50 kDa) were tested for binding to [^3 H]

The subject of series [7] is 50-54 kDa binding protein (JURKAT cells).
Procedure: as §3, §5, §4
In series [8] the test system is calf thymus 50-54 kDa immunophilin. Description: Rotamase (peptidyl-prolyl cis-trans isomerase) assay, 50-54 kDa immunophilin. Format: biochemical. Set-up: key: no activity observed. Conditions: rotamase activity with this peptide as substrate. How it is done: (§1) Rotamase activity (cis-trans peptidyl-prolyl isomerase activity) may be assayed in purified immunophilins using the methods of Fischer et al., Nature, 337:476 (1989) and Lange et al., Nature 4 331:453 (1988), which are incorporated herein by reference.
(§2) Only peptidyl propyl cis-trans isomerase activity to kobs values of greater than about 0.5 min^-1 are considered significant. Values below this are not considered to be due to the catalytic properties of the protein being analyzed.

A further series deals with 10-12 kDa immunophilin. Description: Rotamase (peptidyl-prolyl cis-trans isomerase) assay, 10-12 kDa immunophilin. Conditions: rotamase activity with this peptide as substrate. Set-up: key: no activity observed. The series is classed as biochemical. How it is done: as §1, §2

“And” between values parts separate entries of the source, which are not always exact repeats. Equal entries are not always repeated. Where two headings read alike, the source gives them in different places. Starred links: 1 amine or outer side, 2 acyl side, 3 side chain; linkers in the order of their positions; H or OH if unused. Residues, ends and D or L forms follow the SMILES beside them. *: point of attachment. pNA = O=[N+]([O-])c1ccc(N*)cc1; Suc = O=C(CCC(=O)[*:2])[*:1]

Chain of 10-12 kDa binding protein (JURKAT cells) (P62942 whole entry): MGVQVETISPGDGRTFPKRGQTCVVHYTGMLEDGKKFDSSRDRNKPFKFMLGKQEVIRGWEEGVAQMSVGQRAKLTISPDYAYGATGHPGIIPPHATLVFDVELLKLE

Consider `C=CCC1C=C(C)CC(C)CC(OC)C2OC(O)(C(=O)C(=O)N3CCCCC3C(=O)OC(C(C)=CC3CCC(O)C(OC)C3)C(C)C(O)CC1=O)C(C)CC2OC` (stereo not drawn) [FK-506, tacrolimus], for which, in series [1] (1 μM unlabelled drug, 20 min), the “displacement of bound radioligand from the binding sites” value is listed as greater than 95%. For the same compound, the “inhibition of binding of [3H]-CsA to the 50-54 kDa protein” value in series [2] (all concentrations tested) is reported as “inhibited”. Besides, in series [3], the “time without variability in assay results on storage” value was “at least 30 days”. Also, the “binding capacity / specific binding activity” value in [4] is given as “about 0.5 nmol/mg”. Also, in series [5], the “binding to purified 50-54 kDa binding protein” value is recorded as “bound”. Besides, the “inhibition of binding of [3H]-CSA” value in [6] (isoelectric focusing fraction at pH 6.29) was “inhibited”. Further, the Kd in series [7] is 1 to 10 nM and ~2 nM.

With `CC(C)C[C@H](NC(=O)[C@@H]1CCCN1C(=O)[C@H](C)NC(=O)[C@H](C)NC(=O)CCC(=O)O)C(=O)Nc1ccc([N+](=O)[O-])cc1` [Suc--Ala--Ala--Pro--Leu--pNA] (Suc-AAPL-pNA), the “kobs, 50-54 kDa” value in series [8] is 0.0075 s⁻¹. Further, in the series on 10-12 kDa immunophilin, the “kobs, 10-12 kDa” value came out at 0.93 min^-1.

`C[C@H](NC(=O)CCC(=O)O)C(=O)N[C@@H](CCC(N)=O)C(=O)N1CCC[C@H]1C(=O)N[C@@H](Cc1ccccc1)C(=O)Nc1ccc([N+](=O)[O-])cc1` [Suc--Ala--Gln--Pro--Phe--pNA] (Suc-AQPF-pNA): the “kobs, 50-54 kDa” value in series [8] came out at 0.00367 s⁻¹. The “kobs, 10-12 kDa” value in the series with 10-12 kDa immunophilin is recorded as 0.23 min^-1.

In the case of `C[C@H](NC(=O)CCC(=O)O)C(=O)N[C@@H](CCC(=O)O)C(=O)N1CCC[C@H]1C(=O)N[C@@H](Cc1ccccc1)C(=O)Nc1ccc([N+](=O)[O-])cc1` [Suc--Ala--Glu--Pro--Phe--pNA] (Suc-AEPF-pNA), the “kobs, 50-54 kDa” value in series [8] is recorded as “a”. Moreover, in the series on 10-12 kDa immunophilin, the “kobs, 10-12 kDa” value is “a”.

As for `C[C@H](NC(=O)CCC(=O)O)C(=O)NCC(=O)N1CCC[C@H]1C(=O)N[C@@H](Cc1ccccc1)C(=O)Nc1ccc([N+](=O)[O-])cc1` [Suc--Ala--Gly--Pro--Phe--pNA] (Suc-AGPF-pNA), in series [8], the “kobs, 50-54 kDa” value is 0.00667 s⁻¹. In addition, the “kobs, 10-12 kDa” value in the series with 10-12 kDa immunophilin is listed as “a”.

As for `C[C@H](NC(=O)CCC(=O)O)C(=O)N[C@@H](Cc1c[nH]cn1)C(=O)N1CCC[C@H]1C(=O)N[C@@H](Cc1ccccc1)C(=O)Nc1ccc([N+](=O)[O-])cc1` [Suc--Ala--His--Pro--Phe--pNA] (Suc-AHPF-pNA), the “kobs, 50-54 kDa” value in series [8] was 0.001 s⁻¹. Moreover, the “kobs, 10-12 kDa” value with 10-12 kDa immunophilin was “a”.

Turning to `CC[C@H](C)[C@H](NC(=O)[C@H](C)NC(=O)CCC(=O)O)C(=O)N1CCC[C@H]1C(=O)N[C@@H](Cc1ccccc1)C(=O)Nc1ccc([N+](=O)[O-])cc1` [Suc--Ala--Ile--Pro--Phe--pNA] (Suc-AIPF-pNA), the “kobs, 50-54 kDa” value in series [8] is 0.00033 s⁻¹. For the same compound, in the series with 10-12 kDa immunophilin, the “kobs, 10-12 kDa” value was determined as 0.69 min^-1.

Consider `CC(C)C[C@H](NC(=O)[C@H](C)NC(=O)CCC(=O)O)C(=O)N1CCC[C@H]1C(=O)N[C@@H](Cc1ccccc1)C(=O)Nc1ccc([N+](=O)[O-])cc1` [Suc--Ala--Leu--Pro--Phe--pNA] (Suc-ALPF-pNA), for which, in [8], the “kobs, 50-54 kDa” value amounted to 0.00267 s⁻¹. Moreover, in the series on 10-12 kDa immunophilin, the “kobs, 10-12 kDa” value is reported as 1.61 min^-1.

Turning to `C[C@H](NC(=O)CCC(=O)O)C(=O)N[C@@H](CCCCN)C(=O)N1CCC[C@H]1C(=O)N[C@@H](Cc1ccccc1)C(=O)Nc1ccc([N+](=O)[O-])cc1` [Suc--Ala--Lys--Pro--Phe--pNA], the “kobs, 50-54 kDa” value in [8] turned out to be 0.004 s⁻¹. Moreover, in the series on 10-12 kDa immunophilin, the “kobs, 10-12 kDa” value was 0.36 min^-1.

In the case of `CCCC[C@H](NC(=O)[C@H](C)NC(=O)CCC(=O)O)C(=O)N1CCC[C@H]1C(=O)N[C@@H](Cc1ccccc1)C(=O)Nc1ccc([N+](=O)[O-])cc1` [Suc--Ala--Nle--Pro--Phe--pNA], the “kobs, 50-54 kDa” value in series [8] worked out at 0.00417 s⁻¹. Moreover, in the series on 10-12 kDa immunophilin, the “kobs, 10-12 kDa” value is reported as 0.58 min^-1.

In the case of `C[C@H](NC(=O)CCC(=O)O)C(=O)N[C@@H](Cc1ccccc1)C(=O)N1CCC[C@H]1C(=O)N[C@@H](Cc1ccccc1)C(=O)Nc1ccc([N+](=O)[O-])cc1` [Suc--Ala--Phe--Pro--Phe--pNA], the “kobs, 50-54 kDa” value in [8] worked out at 0.003 s⁻¹. The “kobs, 10-12 kDa” value in the series with 10-12 kDa immunophilin is 3.0 min^-1.

Consider `C[C@H](NC(=O)CCC(=O)O)C(=O)N[C@@H](Cc1c[nH]c2ccccc12)C(=O)N1CCC[C@H]1C(=O)N[C@@H](Cc1ccccc1)C(=O)Nc1ccc([N+](=O)[O-])cc1` [Suc--Ala--Trp--Pro--Phe--pNA] (Suc-AWPF-pNA), for which the “kobs, 50-54 kDa” value in series [8] was determined as 0.00233 s⁻¹. The “kobs, 10-12 kDa” value in the series on 10-12 kDa immunophilin is 0.21 min^-1.

In the case of `O=C(O)CCC(=O)N[C@@H](Cc1ccccc1)C(=O)N1CCC[C@H]1C(=O)N[C@@H](Cc1ccccc1)C(=O)Nc1ccc([N+](=O)[O-])cc1` [Suc--Phe--Pro--Phe--pNA] (Suc-Phe-Pro-Phe-pNA), the “kobs, 50-54 kDa” value in [8] was 0.001 s⁻¹. For the same compound, the “kobs, 10-12 kDa” value with 10-12 kDa immunophilin is 0.63 min^-1.

`CO[C@H]1C[C@@H]2CC[C@@H](C)[C@@](O)(O2)C(=O)C(=O)N2CCCC[C@H]2C(=O)O[C@H]([C@H](C)C[C@@H]2CC[C@@H](O)[C@H](OC)C2)CC(=O)[C@H](C)/C=C(\C)[C@@H](O)[C@@H](OC)C(=O)[C@H](C)C[C@H](C)/C=C/C=C/C=C/1C` [rapamycin]: the IC50 in series [2] (1.8 pmol [3H-dihydro]-FK-506, 15 minutes at 25° C., read-out: B50, inhibition of [3H-dihydro]-FK506 binding) worked out at 0.1 nM. In [2] (concentrations as high as 300 nM), the “effect on binding of [3H]-CSA to the 50-54 kDa protein” value was “not affected”. Besides, in series [5], the “binding to purified 50-54 kDa binding protein” value is on record as “bound”. In series [5] (read-out: dissociation constant, 50-54 kDa protein, unit inferred), the Kd fell in the range of 0.1 to 0.2 nM. The “inhibition of [3H-dihydro]-FK-506 binding in all fractions” value in series [6] (0.7 (unit uncertain)) is listed as “inhibited”. The “competition for CsA binding to 16-18 kDa and 50-54 kDa fractions” value in series [6] (70 (unit uncertain)) was “did not compete”.

As for `CCC[C@@H]1/C=C(\C)C[C@H](C)C[C@H](OC)[C@H]2O[C@@](O)(C(=O)C(=O)N3CCCC[C@H]3C(=O)O[C@H](/C(C)=C/[C@@H]3CC[C@@H](O)[C@H](OC)C3)[C@H](C)[C@@H](O)CC1=O)[C@H](C)C[C@@H]2OC` [tritiated dihydro FK506], the Kd in series [1] (saturation experiments, 0.25 to 20 nM) stood at 4.5 nM.

With `[3H]CC([3H])C[C@@H]1/C=C(\C)C[C@H](C)C[C@H](OC)[C@H]2O[C@@](O)(C(=O)C(=O)N3CCCC[C@H]3C(=O)O[C@H](/C(C)=C/[C@@H]3CC[C@@H](O)[C@H](OC)C3)[C@H](C)[C@@H](O)CC1=O)[C@H](C)C[C@@H]2OC` (stereo partly drawn) [tritiated dihydro FK506], the Hill coefficients result in series [1] (saturation experiments) is “near unity”.

The values above are taken from patent publication US5780307A, “Immunosuppressive drug binding proteins and use” (priority 1996, dated 1998).
